Measurements: the Kinase Knowledgebase extract (Sharma et al. 2016)

target: ROCK2 (human) (UniProt O75116); assay: Inhibition of ROCK2 Kinase Activity
Sequence (O75116 whole entry, looked up): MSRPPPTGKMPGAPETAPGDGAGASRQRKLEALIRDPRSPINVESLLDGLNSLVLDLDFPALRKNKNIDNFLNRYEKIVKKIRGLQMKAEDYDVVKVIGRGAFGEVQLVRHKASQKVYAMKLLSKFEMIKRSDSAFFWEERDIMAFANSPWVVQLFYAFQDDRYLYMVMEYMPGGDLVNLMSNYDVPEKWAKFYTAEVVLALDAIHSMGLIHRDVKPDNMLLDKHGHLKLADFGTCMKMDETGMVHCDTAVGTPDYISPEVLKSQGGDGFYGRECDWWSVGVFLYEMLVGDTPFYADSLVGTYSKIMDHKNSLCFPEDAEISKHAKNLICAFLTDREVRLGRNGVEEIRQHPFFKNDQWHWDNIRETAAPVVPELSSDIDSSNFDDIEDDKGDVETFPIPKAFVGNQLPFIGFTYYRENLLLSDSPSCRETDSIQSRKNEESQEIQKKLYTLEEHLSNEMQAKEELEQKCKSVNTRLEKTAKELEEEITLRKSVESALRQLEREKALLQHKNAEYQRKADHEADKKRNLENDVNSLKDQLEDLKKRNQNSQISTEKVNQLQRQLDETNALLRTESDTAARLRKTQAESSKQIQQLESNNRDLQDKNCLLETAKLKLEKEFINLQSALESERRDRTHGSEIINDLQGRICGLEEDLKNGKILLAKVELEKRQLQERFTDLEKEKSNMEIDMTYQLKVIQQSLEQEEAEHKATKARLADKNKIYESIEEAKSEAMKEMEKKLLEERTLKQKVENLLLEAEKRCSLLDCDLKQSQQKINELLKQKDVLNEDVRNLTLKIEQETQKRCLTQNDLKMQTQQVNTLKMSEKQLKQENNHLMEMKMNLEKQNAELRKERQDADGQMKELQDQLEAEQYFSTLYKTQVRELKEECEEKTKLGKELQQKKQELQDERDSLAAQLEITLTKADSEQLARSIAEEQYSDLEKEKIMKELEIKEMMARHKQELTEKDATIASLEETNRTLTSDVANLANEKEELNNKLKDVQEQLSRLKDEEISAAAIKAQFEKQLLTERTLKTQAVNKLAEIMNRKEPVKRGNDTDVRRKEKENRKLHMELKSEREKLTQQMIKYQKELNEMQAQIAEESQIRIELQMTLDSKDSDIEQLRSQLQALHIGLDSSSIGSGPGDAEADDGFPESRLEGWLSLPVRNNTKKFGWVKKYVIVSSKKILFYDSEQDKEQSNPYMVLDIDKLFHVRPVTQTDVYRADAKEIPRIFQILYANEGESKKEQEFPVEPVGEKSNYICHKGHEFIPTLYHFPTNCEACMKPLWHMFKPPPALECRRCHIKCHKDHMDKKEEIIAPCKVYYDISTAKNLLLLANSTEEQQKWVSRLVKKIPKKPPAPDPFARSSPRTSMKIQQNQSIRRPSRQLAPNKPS

Row | SMILES | IC50
1 | CN(CCc1ccccc1)C(=O)CC(N)c1ccc(C(=O)Nc2ccncc2)cc1 (configuration not stated) | 50 to 500 nM
2 | CC(NC(=O)CC(N)c1ccc(C(=O)Nc2ccncc2)cc1)c1cccc2ccccc12 (configuration not stated) | 50 to 500 nM
3 | NC(c1ccc(C(=O)Nc2ccncc2)cc1)C1CCCN1C(=O)Cc1csc2ccccc12 (configuration not stated) | 50 to 500 nM
4 | NC(c1ccc(C(=O)Nc2ccncc2)cc1)C1CCCN1C(=O)C1(c2ccc(F)c(Cl)c2)CC1 (configuration not stated) | 500 to 5000 nM
5 | NC(CNC(=O)C1CC1)c1ccc(C(=O)Nc2ccncc2)cc1 (configuration not stated) | 500 to 5000 nM
6 | CC(Cc1ccc(Cl)cc1)NC(=O)CC(N)c1ccc(C(=O)Nc2ccncc2)cc1 (configuration not stated) | 50 to 500 nM
7 | CC(CNC(=O)CC(N)c1ccc(C(=O)Nc2ccncc2)cc1)c1ccccc1 (configuration not stated) | 50 to 500 nM
8 | NC(c1ccc(C(=O)Nc2ccncc2)cc1)C1CCCN1C(=O)C1CCCCc2ccc(F)cc21 (configuration not stated) | 5000 to 50000 nM
9 | NC(c1ccc(C(=O)Nc2ccncc2)cc1)C1CCCN1C(=O)C1(c2ccc(Cl)cc2)CC1 (configuration not stated) | 500 to 5000 nM
10 | COc1ccc(CC(=O)N2CCCC2C(N)c2ccc(C(=O)Nc3ccncc3)cc2)cc1 (configuration not stated) | 50 to 500 nM
11 | CC1CC1C(=O)NCC(N)c1ccc(C(=O)Nc2ccncc2)cc1 (configuration not stated) | 500 to 5000 nM
12 | NC(CNC(=O)CSc1ncccn1)c1ccc(C(=O)Nc2ccncc2)cc1 (configuration not stated) | 500 to 5000 nM
13 | NC(CNC(=O)c1cccc(Oc2ccccc2)c1)c1ccc(C(=O)Nc2ccncc2)cc1 (configuration not stated) | 500 to 5000 nM
14 | NC(CC(=O)N[C@H]1CCc2ccccc21)c1ccc(C(=O)Nc2ccncc2)cc1 (some centres not stated) | 50 to 500 nM
15 | COc1ccc(NC(=S)NCC(N)c2ccc(C(=O)Nc3ccncc3)cc2)cc1 (configuration not stated) | 500 to 5000 nM
16 | CN(CC(N)c1ccc(C(=O)Nc2ccncc2)cc1)C(=O)C1(c2ccc(Cl)c(Cl)c2)CC1 (configuration not stated) | 500 to 5000 nM
17 | COc1ccc(CC(=O)N(C)CC(N)c2ccc(C(=O)Nc3ccncc3)cc2)cc1 (configuration not stated) | 50 to 500 nM
18 | CN(CC(N)c1ccc(C(=O)Nc2ccncc2)cc1)C(=O)C1(c2ccc(Cl)cc2F)CC1 (configuration not stated) | 500 to 5000 nM
19 | CN(CC(N)c1ccc(C(=O)Nc2ccncc2)cc1)C(=O)C1(c2ccc(Cl)cc2)CCC1 (configuration not stated) | 500 to 5000 nM
20 | NC(CNC(=O)Cc1csc(-c2ccccc2)n1)c1ccc(C(=O)Nc2ccncc2)cc1 (configuration not stated) | 50 to 500 nM
21 | COc1cccc(CC(=O)N2CCCC2C(N)c2ccc(C(=O)Nc3ccncc3)cc2)c1 (configuration not stated) | 500 to 5000 nM
22 | NC(CC(=O)N[C@H]1CCCc2ccccc21)c1ccc(C(=O)Nc2ccncc2)cc1 (some centres not stated) | 50 to 500 nM
23 | NC(CC(=O)NCCc1ccc(Oc2ccccc2)cc1)c1ccc(C(=O)Nc2ccncc2)cc1 (configuration not stated) | 50 to 500 nM
24 | COc1ccc(CC(=O)NCC(N)c2ccc(C(=O)Nc3ccncc3)cc2)cc1F (configuration not stated) | 50 to 500 nM

Row | SMILES | IC50
25 | NC(c1ccc(C(=O)Nc2ccncc2)cc1)C1CCCN1C(=O)Cc1csc(-c2ccccc2)n1 (configuration not stated) | 500 to 5000 nM
26 | CC(C)(C)c1ccc(NC(=O)NCC(N)c2ccc(C(=O)Nc3ccncc3)cc2)cc1 (configuration not stated) | 500 to 5000 nM
27 | N[C@H](CC(=O)N[C@@H]1COc2ccccc21)c1ccc(C(=O)Nc2ccncc2)cc1 | < 50 nM
28 | NC(CNC(=O)Cc1ccc2ccccc2c1)c1ccc(C(=O)Nc2ccncc2)cc1 (configuration not stated) | 500 to 5000 nM
29 | CC(C)C(C(=O)N1CCCC1C(N)c1ccc(C(=O)Nc2ccncc2)cc1)c1ccc(Cl)cc1 (configuration not stated) | 500 to 5000 nM
30 | NC(c1ccc(C(=O)Nc2ccncc2)cc1)C1CCCN1C(=O)C1CCOc2ccccc21 (configuration not stated) | 500 to 5000 nM
31 | Cc1ccc(CNC(=O)CC(N)c2ccc(C(=O)Nc3ccncc3)cc2)cc1 (configuration not stated) | 50 to 500 nM
32 | NC(CC(=O)NCCN1CCOCC1)c1ccc(C(=O)Nc2ccncc2)cc1 (configuration not stated) | 50 to 500 nM
33 | CN(CC(N)c1ccc(C(=O)Nc2ccncc2)cc1)C(=O)C1(c2ccc(F)c(Cl)c2)CC1 (configuration not stated) | 500 to 5000 nM
34 | NC(CNC(=O)Cc1ccccn1)c1ccc(C(=O)Nc2ccncc2)cc1 (configuration not stated) | 500 to 5000 nM
35 | COc1ccc(C2(C(=O)N3CCCC3C(N)c3ccc(C(=O)Nc4ccncc4)cc3)CCCC2)cc1 (configuration not stated) | 500 to 5000 nM
36 | CC(=O)NCCNC(=O)CC(N)c1ccc(C(=O)Nc2ccncc2)cc1 (configuration not stated) | 50 to 500 nM
37 | NC(CNC(=O)c1ccc(F)cc1)c1ccc(C(=O)Nc2ccncc2)cc1 (configuration not stated) | 500 to 5000 nM
38 | NC(CC(=O)NCc1ccccc1C(F)(F)F)c1ccc(C(=O)Nc2ccncc2)cc1 (configuration not stated) | 50 to 500 nM
39 | NC(c1ccc(C(=O)Nc2ccncc2)cc1)C1CCCN1C(=O)C1(c2ccc(Cl)cc2)CCCC1 (configuration not stated) | 500 to 5000 nM
40 | CCOc1ccccc1CCNC(=O)CC(N)c1ccc(C(=O)Nc2ccncc2)cc1 (configuration not stated) | 50 to 500 nM
41 | NC(CC(=O)NCCc1ccc(C(F)(F)F)cc1)c1ccc(C(=O)Nc2ccncc2)cc1 (configuration not stated) | 50 to 500 nM
42 | NC(CNC(=O)Cc1cccc(Cl)c1)c1ccc(C(=O)Nc2ccncc2)cc1 (configuration not stated) | 50 to 500 nM
43 | Nc1c(C(=O)NCC(N)c2ccc(C(=O)Nc3ccncc3)cc2)cnn1-c1ccc(F)cc1 (configuration not stated) | 500 to 5000 nM
44 | CN(CC(N)c1ccc(C(=O)Nc2ccncc2)cc1)C(=O)C1CCCc2ccccc21 (configuration not stated) | 500 to 5000 nM
45 | Cc1cccc(Cl)c1CNC(=O)CC(N)c1ccc(C(=O)Nc2ccncc2)cc1 (configuration not stated) | 50 to 500 nM
46 | CC1=C(C(=O)NCC(N)c2ccc(C(=O)Nc3ccncc3)cc2)Cc2ccccc21 (configuration not stated) | 500 to 5000 nM
47 | NC(CC(=O)NC1CCc2ccccc21)c1ccc(C(=O)Nc2ccncc2)cc1 (configuration not stated) | 50 to 500 nM
48 | COc1cccc(OC)c1CNC(=O)CC(N)c1ccc(C(=O)Nc2ccncc2)cc1 (configuration not stated) | 50 to 500 nM

Row | SMILES | IC50
49 | Cc1ccc2[nH]cc(CCNC(=O)CC(N)c3ccc(C(=O)Nc4ccncc4)cc3)c2c1 (configuration not stated) | 50 to 500 nM
50 | COc1ccccc1CC(=O)N1CCCC1C(N)c1ccc(C(=O)Nc2ccncc2)cc1 (configuration not stated) | 500 to 5000 nM
51 | NC(c1ccc(C(=O)Nc2ccncc2)cc1)C1CCCN1C(=O)Cc1cc(F)cc(F)c1 (configuration not stated) | 500 to 5000 nM
52 | CC(C)(C(=O)N1CCCC1C(N)c1ccc(C(=O)Nc2ccncc2)cc1)c1cccs1 (configuration not stated) | 500 to 5000 nM
53 | NC(CC(=O)NCc1cccc(F)c1)c1ccc(C(=O)Nc2ccncc2)cc1 (configuration not stated) | 50 to 500 nM
54 | NC(c1ccc(C(=O)Nc2ccncc2)cc1)C1CCCN1C(=O)C(c1ccccc1)C1CCCCC1 (configuration not stated) | 500 to 5000 nM
55 | COCCC(=O)NCC(N)c1ccc(C(=O)Nc2ccncc2)cc1 (configuration not stated) | 500 to 5000 nM
56 | Cc1cccc(CNC(=O)CC(N)c2ccc(C(=O)Nc3ccncc3)cc2)c1 (configuration not stated) | 50 to 500 nM
57 | CC(C)(C(=O)N1CCCC1C(N)c1ccc(C(=O)Nc2ccncc2)cc1)c1ccc(Cl)cc1 (configuration not stated) | 500 to 5000 nM
58 | Cc1ccccc1CNC(=O)CC(N)c1ccc(C(=O)Nc2ccncc2)cc1 (configuration not stated) | 50 to 500 nM
59 | NC(CC(=O)NCc1ccc(Cl)cc1Cl)c1ccc(C(=O)Nc2ccncc2)cc1 (configuration not stated) | 50 to 500 nM
60 | NC(CC(=O)NCc1cccc(Cl)c1)c1ccc(C(=O)Nc2ccncc2)cc1 (configuration not stated) | 50 to 500 nM
61 | NC(CNC(=O)CC1Cc2ccccc2C1)c1ccc(C(=O)Nc2ccncc2)cc1 (configuration not stated) | 50 to 500 nM
62 | CN(CC(N)c1ccc(C(=O)Nc2ccncc2)cc1)C(=O)Cc1ccc(Cl)cc1 (configuration not stated) | 500 to 5000 nM
63 | CCCCNNC(=O)CC(N)c1ccc(C(=O)Nc2ccncc2)cc1 (configuration not stated) | 50 to 500 nM
64 | CN(CC(N)c1ccc(C(=O)Nc2ccncc2)cc1)C(=O)C1(c2ccsc2)CC1 (configuration not stated) | 500 to 5000 nM
65 | CC(C)(C(=O)NCC(N)c1ccc(C(=O)Nc2ccncc2)cc1)c1cccs1 (configuration not stated) | 50 to 500 nM
66 | NC(CNC(=O)c1cnccn1)c1ccc(C(=O)Nc2ccncc2)cc1 (configuration not stated) | 500 to 5000 nM
67 | CN(CC(N)c1ccc(C(=O)Nc2ccncc2)cc1)C(=O)Cc1cc(F)ccc1F (configuration not stated) | 500 to 5000 nM
68 | NC(c1ccc(C(=O)Nc2ccncc2)cc1)C1CCCN1C(=O)Cc1ccc(F)cc1Cl (configuration not stated) | 500 to 5000 nM
69 | CC(C)(C(=O)NCC(N)c1ccc(C(=O)Nc2ccncc2)cc1)c1ccc(F)c(Cl)c1 (configuration not stated) | 50 to 500 nM
70 | NC(CNC(=O)Nc1ccccc1F)c1ccc(C(=O)Nc2ccncc2)cc1 (configuration not stated) | 50 to 500 nM
71 | NC(CNC(=O)c1cccs1)c1ccc(C(=O)Nc2ccncc2)cc1 (configuration not stated) | 50 to 500 nM
72 | NC(CC(=O)NC1CCCc2ccccc21)c1ccc(C(=O)Nc2ccncc2)cc1 (configuration not stated) | 50 to 500 nM
